Source: patent US20200187507A1, “INOCULANTS INCLUDING PLANT GROWTH PRODUCING RHIZOBACTERIA (PGPR) AND INSECTIDES FOR PROMOTING PLANT GROWTH AND HEALTH” (Auburn University, priority 2018, published 2020)

Assays:
Pseudomonas fluorescens = conditions: imidacloprid as cotton seed treatment; cited from earlier work
[1] = system: Bacillus sphaericus AP 282; experiment: Bacterial strains and insecticide compatibility (mixed in tubes, CFU counts); assay type: cell-based; conditions: Example 1; mixed for 2 wk at label rates
Experimental: (§1) The strains of Blend 20, each with a minimum concentration of 1×10^8 CFU per ml were individually evaluated for their compatibility with commonly used liquid insecticides. The strains were evaluated individually to make recovery of each bacterium apparent, as the colony morphologies are similar. Freshly prepared bacteria stock solutions were evaluated for their ability to survive being ‘tank’ mixed with insecticides in 50 ml centrifuge tubes with three different insecticides mixed together for 1 h, 24 h, and 1 wk, and 2 wk at 25 s ° C. under ambient light. The bacteria were evaluated for compatibility with insecticides which included three chemical groups: neonicotinoids, phenylpyrazoles, and pyrethroids. The pesticides evaluated were bifenthrin (Talstar Pro, FMC Corporation, Philadelphia, Pa.), fipronil (Termidor SC, BASF Corporation, Florham Park, N.J.), imidacloprid (Merit 2F, Bayer, Research Triangle Park, N.C.). While Termidor SC is not used on golf courses, it was selected for convenience because the active ingredient (Fipronil) is formulated as a granular product and widely used for mole cricket management (24). Bacteria and pesticide solutions were prepared based on the label recommendations for volume of area covered (bifenthrin, imidacloprid) or amount of active ingredient per volume needed (fipronil). Bifenthrin and fipronil were evaluated at high and low label rates. Bifenthrin was mixed at a rate of 29.6 and 14.8 ml per 92.9 m^2 (7.9% active ingredient, 302 g per 3,785 ml). Imidacloprid was mixed a rate of 17 ml per 92.9 m^2 (21.4%, 907 g per 3,785 ml). Fipronil was prepared at 47.3 (0.125% dilution) and 23.65 ml (0.06% dilution) per 3,785 ml (9.1% active ingredient, 363 g per 3,785 ml). After the allotted time, the centrifuge tubes were vigorously shaken to evenly distribute bacterial cells before serial 10-fold dilutions. Serial dilutions were made of each bacterial suspension into sterile water blanks to a final dilution of 10^−5. Bacterial populations (number of colony forming units [CFU]) in the suspensions were determined by plating 50 μl of the 10^−5 serial dilutions onto three TSA plates, incubating plates for 24 h and then counting the number of bacterial colonies on each plate.
(§2) The strains that comprise Blend 20, each with aminimum concentration of 1×10^8 CFU per ml, were individually evaluated for their compatibility with commonly used liquid neonicotinoid insecticides. The strains within the blend were evaluated individually to make recovery of each bacterium apparent, as the colony morphologies are similar. Freshly prepared bacteria stock solutions were evaluated for survival when mixed with three different insecticides mixed in separate 50 mL centrifuge tubes for 1 and 24 h, and 1 and 2 wk at 25° C. under ambient light. Bacteria and pesticide solutions were prepared based on the label recommendations for volume of area covered. The pesticides evaluated were imidacloprid (Ferti-lome® Tree and Shrub Systemic Insect Drench, 1.47% active ingredient, Voluntary Purchasing Groups, Inc., Bonham, Tex., USA), imidacloprid (Merit® 2F, 21.4% active ingredient, Bayer Environmental Sciences, Research Triangle Park, N.C., USA), and imidacloprid and clothianidin (Bayer Advanced 12 Month Tree and Shrub Protect and Feed II®, 0.74% imidacloprid and 0.37% clothianidin active ingredient, Bayer Environmental Sciences). The Ferti-lome® product was mixed at a rate of 89 mL of product per 3785 mL. Merit® 2F was mixed at a rate of 17 mL of product per 92.9 m^2. Bayer Advanced Tree and Shrub Protect and Feed II® was mixed at a rate of 89 mL of product per 3785 mL.
(§3) After the allotted time, the centrifuge tubes were vigorously shaken to evenly distribute bacterial cells before completing five serial 10-fold dilutions. Serial dilutions were made of each bacterial suspension into sterile water blanks to a final dilution of 10^−5. […]

Bacillus pumilus AP 18 = experiment: as above; assay type: cell-based; conditions: Example 1; mixed for 2 wk at label rates
Experimental: as §1, §2, §3

Bacillus pumilus AP 7 = experiment: as above; assay type: cell-based; conditions: Example 1; mixed for 2 wk at label rates
Experimental: The strains of Blend 20, each with a minimum concentration of 1×10^8 CFU per ml were individually evaluated for their compatibility with commonly used liquid insecticides. The strains were evaluated individually to make recovery of each bacterium apparent, as the colony morphologies are similar. Freshly prepared bacteria stock solutions were evaluated for their ability to survive being ‘tank’ mixed with insecticides in 50 ml centrifuge tubes with three different insecticides mixed together for 1 h, 24 h, and 1 wk, and 2 wk at 25 s ° C. under ambient light. The bacteria were evaluated for compatibility with insecticides which included three chemical groups: neonicotinoids, phenylpyrazoles, and pyrethroids. The pesticides evaluated were bifenthrin (Talstar Pro, FMC Corporation, Philadelphia, Pa.), fipronil (Termidor SC, BASF Corporation, Florham Park, N.J.), imidacloprid (Merit 2F, Bayer, Research Triangle Park, N.C.). […] Bifenthrin and fipronil were evaluated at high and low label rates. […] Bacterial populations (number of colony forming units [CFU]) in the suspensions were determined by plating 50 μl of the 10^−5 serial dilutions onto three TSA plates, incubating plates for 24 h and then counting the number of bacterial colonies on each plate.
Bacterial strains from multiple genera with known populations (minimum of 1×10^8 colony forming units (CFU)/ml (0.03 oz)) were evaluated individually for their compatibility with commonly turfgrass insecticides. […]
The strains that comprise Blend 20, each with aminimum concentration of 1×10^8 CFU per ml, were individually evaluated for their compatibility with commonly used liquid neonicotinoid insecticides. The strains within the blend were evaluated individually to make recovery of each bacterium apparent, as the colony morphologies are similar. Freshly prepared bacteria stock solutions were evaluated for survival when mixed with three different insecticides mixed in separate 50 mL centrifuge tubes for 1 and 24 h, and 1 and 2 wk at 25° C. under ambient light. […]

tawny mole crickets = experiment: Field plots: tawny mole cricket damage ratings (Cobb and Mack); assay type: in vivo, Neoscapteriscus vicinus Scudder; conditions: scale 0-9
Experimental: On 26 Mar. 2017 field plots were established at the Auburn University Turfgrass Research Unit, Auburn, Ala. over hybrid and common bermudagrass tawny mole cricket infested areas in a Marvyn loamy sand. Plots were 3 m×2 m with at least 2 m separating plots. Field plots were assessed for mole cricket damage based on the rating system of Cobb and Mack (26). A 1 m×1 m frame divided into a grid with 9 subsections was used to score the plots on a scale of 0-9, where 0 indicates no damage and 9 indicates activity in each section. After the initial assessment, plots were assigned to a treatment group based on damage ratings. […] Damage assessments were taken from seven locations (center, top left, top right, bottom left, bottom right, middle left, and middle right), with one location sampled during each damage assessment period for all treatments. The experiment evaluated four treatments, PGPR-treated (Blend 20), bifenthrin-treated, PGPR+bifenthrin-treated, and non-treated control. On 27 Mar. 2017 (Day 0) and 23 April (Day 27) plots were treated with a backpack sprayer. Bacteria-treated plots received 3 L (500 ml/m^2) freshly-prepared aqueous bacterial suspension of 1×10^7 CFU per ml. Bifenthrin-treated plots were treated at a rate of 29.6 ml per 92.9 m^2. The sprayer applied 244 ml of this mixture per plot. PGPR+ bifenthrin plots were treated with the 3 L of bacteria and 244 ml of bifenthrin mixed together in the same tank. The non-treated plots were treated with 3 L of distilled water coincident with treatment of the other plots. After treating, the plots were hand watered with 76.2 L of water (1.27 cm) to move the treatments into the root zone. The experiment was replicated six times for each treatment.
Top growth (fresh and dry mass) in the cylinder trials were analyzed separately using repeated measures of multivariate analysis of covariance (MANCOVA) due to trial being a significant factor (P<0.05, JMP Version 13. SAS Institute Inc., Cary, N.C., 1989-2007). Root fresh and dry mass, and length were analyzed using orthogonal contrasts (P<0.05, JMP Version 13. SAS Institute Inc., Cary, N.C., 1989-2007). The number of mole crickets recovered and mole cricket weights from each treatment were used as covariants. Mole cricket weights were analyzed using analysis of variance (ANOVA), Student's t-test. The number of mole crickets recovered and mole cricket weights within treatments were not significant in either PVC arena trial. For the field trial, LSMeans, Student's t-Test (LSD, P<0.05) was used to compare each sampling period's mole cricket damage ratings.

CN(C)C(=S)SSC(=S)N(C)C [thiram]
Pseudomonas fluorescens populations when mixed with pesticide or extract (Pseudomonas fluorescens): not negatively impacted

CC[C@H](C)[C@H]1O[C@]2(C=C[C@@H]1C)C[C@@H]1C[C@@H](C/C=C(\C)[C@@H](O[C@H]3C[C@H](OC)[C@@H](O[C@H]4C[C@H](OC)[C@@H](O)[C@H](C)O4)[C@H](C)O3)[C@@H](C)/C=C/C=C3\CO[C@@H]4[C@H](O)C(C)=C[C@@H](C(=O)O1)[C@]34O)O2 [avermectin]
Pseudomonas fluorescens populations when mixed with pesticide or extract (Pseudomonas fluorescens): remained stable

N#Cc1nn(-c2c(Cl)cc(C(F)(F)F)cc2Cl)c(N)c1[S+]([O-])C(F)(F)F (stereo not shown) [Fipronil, fipronil]
bacterial populations when mixed with insecticide [1]: not negatively impacted | bacterial populations when mixed with insecticide (Bacillus pumilus AP 18): not negatively impacted | bacterial populations when mixed with insecticide (Bacillus pumilus AP 7): not negatively impacted

O=C1C2CC=CCC2C(=O)N1SC(Cl)(Cl)Cl (stereo not shown) [captan]
Pseudomonas fluorescens populations when mixed with pesticide or extract (Pseudomonas fluorescens): negatively impacted

COC(=O)Nc1nc2ccccc2[nH]1 [carbendazim]
Pseudomonas fluorescens populations when mixed with pesticide or extract (Pseudomonas fluorescens): not negatively impacted

COC(=O)N(C(=O)N1CO[C@@]2(C(=O)OC)Cc3cc(Cl)ccc3C2=N1)c1ccc(OC(F)(F)F)cc1 [indoxacarb]
Pseudomonas fluorescens populations when mixed with pesticide or extract (Pseudomonas fluorescens): not

CNC(=O)Oc1cccc2c1OC(C)(C)C2 [carbofuran]
Pseudomonas fluorescens populations when mixed with pesticide or extract (Pseudomonas fluorescens): remained stable

mancozeb
Pseudomonas fluorescens populations when mixed with pesticide or extract (Pseudomonas fluorescens): negatively impacted

CCOP(=S)(OCC)Oc1nc(Cl)c(Cl)cc1Cl [chlorpyriphos]
Pseudomonas fluorescens populations when mixed with pesticide or extract (Pseudomonas fluorescens): remained stable

O=[N+]([O-])NC1=NCCN1Cc1ccc(Cl)nc1 [Imidacloprid, imidacloprid]
bacterial populations when mixed with insecticide [1]: not negatively impacted | bacterial populations when mixed with insecticide (Bacillus pumilus AP 18): not negatively impacted | Pseudomonas fluorescens populations when mixed with pesticide or extract (Pseudomonas fluorescens): negatively impacted | bacterial populations when mixed with insecticide (Bacillus pumilus AP 7): not negatively impacted

Cc1c(COC(=O)[C@@H]2[C@H](/C=C(\Cl)C(F)(F)F)C2(C)C)cccc1-c1ccccc1 (racemic) [Bifenthrin, bifenthrin]
Mean Mole Cricket Damage Rating (tawny mole crickets; 0 days after treatment): 7.52a | Mean Mole Cricket Damage Rating (tawny mole crickets; 14 days after treatment): 7.95a | Mean Mole Cricket Damage Rating (tawny mole crickets; 21 days after treatment): 7.14a | Mean Mole Cricket Damage Rating (tawny mole crickets; 28 days after treatment (1 after re-treatment)): 1.71b | Mean Mole Cricket Damage Rating (tawny mole crickets; 33 days after treatment (5 after re-treatment)): 5.10ab | Mean Mole Cricket Damage Rating (tawny mole crickets; 42 days after treatment (15 after re-treatment)): 3.90ab | Mean Mole Cricket Damage Rating (tawny mole crickets; 46 days after treatment (19 after re-treatment)): 1.48b | Mean Mole Cricket Damage Rating (tawny mole crickets; 50 days after treatment (23 after re-treatment)): 1.86b | Mean Mole Cricket Damage Rating (tawny mole crickets; 56 days after treatment (29 after re-treatment)): 4.43b | bacterial populations when mixed with insecticide [1]: not negatively impacted | bacterial populations when mixed with insecticide (Bacillus pumilus AP 18): not negatively impacted | bacterial populations when mixed with insecticide (Bacillus pumilus AP 7): not negatively impacted

CCCC1COC(Cn2cncn2)(c2ccc(Cl)cc2Cl)O1 (stereo not shown) [propiconazole]
Pseudomonas fluorescens populations when mixed with pesticide or extract (Pseudomonas fluorescens): negatively impacted
